Experimental data from PMC12595434, “Development of retinoid nuclear receptor pathway antagonists through targeting aldehyde dehydrogenase 1A3” (iScience, 2025).
pEC50, pIC50: −log10 of the molar value. Where “and” joins values, the source holds several entries; their conditions need not be identical. Identical values can stand only once.

Key:
[1] = test system: endogenous ALDH1A3 in MDA-MB-468 cells; assay: Quantification of atRA in cells; type: cell-based, human; conditions: 24 h, dose titration
MDCK-MDR2 = MDCK-MDR2 bidirectional permeability assay; type: in vitro ADME; conditions: A to B
MDR2 = assay: MDCK-MDR2 bidirectional permeability assay; type: in vitro ADME; conditions: dog; efflux ratio; read-out: MDCK-MDR2 (B to A/A to B)
CYP2C19 = CYP2C19 (Homo sapiens, UniProt P33261); assay: CYP inhibition; type: in vitro ADME
hERG [2] = biological target: T1, hERG (Homo sapiens, UniProt Q12809); assay: hERG patch-clamp; type: cell-based
hERG [3] = biological target: T1, hERG; assay: hERG dofetilide binding assay
ROBO1 = biological target: T2, ROBO1 (Homo sapiens, UniProt Q9Y6N7); assay: Thermal proteome profiling (TPP) in A375 cells; type: cell-based; conditions: ROBO1, 100 nM
T2 construct: Treated A375 cells were harvested from 10 × 15 cm plates; endogenous in cells; host or cells: A375 melanoma cells

CCKa = CCKa (Homo sapiens, UniProt P32238); assay: Off-target profiling panel; type: binding; conditions: read-out: Inhibition by MBE1 at 10 μM (%)
5HTT = 5HTT (Homo sapiens, UniProt P31645); assay: Off-target profiling panel; type: binding; conditions: read-out: Inhibition by MBE1 at 10 μM (%)
LN229 cells = assay: Metabolomic profiling of treated cell lines (raw metabolite counts); type: cell-based, human; conditions: LN229:MBE, replicates
Source text: Supplement mmc8.xlsx, sheet "Supplement Table 7" | column: LN229:MBE

MDA-MB-468 cells = conditions: MDA-MB-468, 24 hour incubation, highest tested dose 10 μM
ALDH1A3 = biological target: T3, ALDH1A3 (Homo sapiens, UniProt P47895); assay: Cellular thermal shift assay (CETSA) in A375 cells; type: cell-based; set-up: endogenous in cells; host or cells: A375 cells; conditions: 100 nM, 1h at 37°C
T3 sequence (P47895 1-512): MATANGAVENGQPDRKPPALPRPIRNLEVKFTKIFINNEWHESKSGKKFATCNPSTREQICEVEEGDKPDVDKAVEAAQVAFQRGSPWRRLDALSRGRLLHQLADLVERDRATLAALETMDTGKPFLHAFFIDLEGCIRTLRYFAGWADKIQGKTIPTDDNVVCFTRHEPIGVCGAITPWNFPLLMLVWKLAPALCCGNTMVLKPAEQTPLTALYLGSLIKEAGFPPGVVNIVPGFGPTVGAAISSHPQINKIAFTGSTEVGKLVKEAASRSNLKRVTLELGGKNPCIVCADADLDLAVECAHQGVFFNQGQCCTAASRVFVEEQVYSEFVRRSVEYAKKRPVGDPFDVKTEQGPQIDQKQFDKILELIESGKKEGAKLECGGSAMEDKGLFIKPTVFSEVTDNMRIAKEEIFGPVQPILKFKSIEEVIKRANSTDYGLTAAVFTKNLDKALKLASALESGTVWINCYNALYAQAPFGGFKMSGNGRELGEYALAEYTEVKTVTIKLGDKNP
Protocol: CETSA was performed according to protocols described before.[85] Briefly, 6 × 10cm dishes of A375 cells were collected and treated with 100 nM MBE1 or 0.1% DMSO for 1h at 37°C. Afterward, cells were pelleted through centrifugation at 300g for 5 min. Cells were then washed with ice-cold PBS and resuspended in 800 μL of PBS. Cell suspension was aliquoted to 7xPCR tubes with 100 μL each and subjected to thermal denaturation at 46.3, 48.6, 52.2, 56.5, 60.1, 62.5, 64.0°C for 3 min. The resulting sample was snap frozen in liquid nitrogen followed by incubation at room temperature until fully thawed. This procedure was performed twice followed by brief vortexing and mixing to release soluble proteins from the cells. Samples were then transferred to 1.5 mL Eppendorf tubes and centrifuged at 20,000g for 20 min at 4°C, 90 μL of the resulting supernatant was collected into another new 1.5 mL Eppendorf tube and subjected to protein analysis by western blot (WB). NPTN (proteintech #28022-1-AP) and ALDH1A3 (abcam #ab129815) were used to detect target proteins while GelCode Blue Stain Reagent (Thermofisher scientific #24590) was used to stain for total proteins loaded in the WB analysis.

[4] = Cytotoxicity, 48 h tetrazolium proliferation assay
[5] = test system: human ALDH1A3 in MCF7-ALDH1A3 cells; assay: STRA6 qPCR retinoid inhibition assay in MCF7-ALDH1A3 cells; conditions: for pIC50: 24 h, read-out: cellular IC50 for ALDH1A3, STRA6 mRNA; for pEC50: read-out: EC50 cellular, human ALDH1A3
[6] = test system: panel of cancer cell lines; assay: 48 h proliferation, WST-8 tetrazolium dye assay; type: cell-based, human; conditions: 48-h proliferation assays, 23 cell lines

T1 sequence (Q12809 whole entry): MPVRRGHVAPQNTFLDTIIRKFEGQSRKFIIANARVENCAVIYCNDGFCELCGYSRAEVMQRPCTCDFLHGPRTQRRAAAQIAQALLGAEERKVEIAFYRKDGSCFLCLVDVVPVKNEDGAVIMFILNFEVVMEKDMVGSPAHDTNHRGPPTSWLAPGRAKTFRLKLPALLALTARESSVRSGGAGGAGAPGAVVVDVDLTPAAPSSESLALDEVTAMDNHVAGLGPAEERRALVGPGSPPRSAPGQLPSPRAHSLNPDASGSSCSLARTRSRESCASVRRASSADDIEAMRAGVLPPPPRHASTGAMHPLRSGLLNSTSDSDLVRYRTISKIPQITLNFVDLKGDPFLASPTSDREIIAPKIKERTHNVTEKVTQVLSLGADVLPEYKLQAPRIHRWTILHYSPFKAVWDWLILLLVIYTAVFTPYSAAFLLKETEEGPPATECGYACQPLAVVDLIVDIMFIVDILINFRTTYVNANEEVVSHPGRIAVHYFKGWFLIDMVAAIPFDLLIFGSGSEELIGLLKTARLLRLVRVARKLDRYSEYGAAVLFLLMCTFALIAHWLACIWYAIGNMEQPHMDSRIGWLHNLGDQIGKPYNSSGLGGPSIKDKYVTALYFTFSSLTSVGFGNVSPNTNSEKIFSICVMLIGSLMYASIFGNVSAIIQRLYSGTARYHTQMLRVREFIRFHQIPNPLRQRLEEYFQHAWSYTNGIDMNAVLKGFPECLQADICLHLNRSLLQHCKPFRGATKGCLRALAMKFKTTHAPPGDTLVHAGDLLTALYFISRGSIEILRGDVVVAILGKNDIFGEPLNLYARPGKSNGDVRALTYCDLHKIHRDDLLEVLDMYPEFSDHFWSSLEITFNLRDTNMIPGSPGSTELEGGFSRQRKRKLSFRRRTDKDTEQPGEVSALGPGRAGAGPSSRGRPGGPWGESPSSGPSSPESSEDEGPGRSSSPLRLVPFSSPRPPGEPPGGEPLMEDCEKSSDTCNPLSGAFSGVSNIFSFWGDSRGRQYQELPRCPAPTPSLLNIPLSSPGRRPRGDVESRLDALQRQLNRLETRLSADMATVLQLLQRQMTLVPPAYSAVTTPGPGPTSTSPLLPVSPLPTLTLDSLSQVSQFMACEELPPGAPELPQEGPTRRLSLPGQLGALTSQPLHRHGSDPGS
Chain of CYP2C19 (P33261 whole entry): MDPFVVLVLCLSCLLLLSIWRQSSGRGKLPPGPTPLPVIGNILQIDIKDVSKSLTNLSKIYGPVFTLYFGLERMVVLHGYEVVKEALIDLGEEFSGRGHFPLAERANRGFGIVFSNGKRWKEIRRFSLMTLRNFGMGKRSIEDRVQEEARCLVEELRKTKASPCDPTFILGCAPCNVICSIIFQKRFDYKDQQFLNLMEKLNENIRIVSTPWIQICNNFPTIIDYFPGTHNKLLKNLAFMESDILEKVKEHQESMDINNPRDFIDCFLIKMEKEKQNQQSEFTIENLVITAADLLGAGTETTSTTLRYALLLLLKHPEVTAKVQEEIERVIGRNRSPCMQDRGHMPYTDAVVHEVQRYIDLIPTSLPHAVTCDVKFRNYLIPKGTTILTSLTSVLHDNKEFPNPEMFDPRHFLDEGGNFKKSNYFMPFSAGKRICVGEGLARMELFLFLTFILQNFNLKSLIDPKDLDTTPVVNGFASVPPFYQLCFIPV
T2 sequence (Q9Y6N7 26-1651): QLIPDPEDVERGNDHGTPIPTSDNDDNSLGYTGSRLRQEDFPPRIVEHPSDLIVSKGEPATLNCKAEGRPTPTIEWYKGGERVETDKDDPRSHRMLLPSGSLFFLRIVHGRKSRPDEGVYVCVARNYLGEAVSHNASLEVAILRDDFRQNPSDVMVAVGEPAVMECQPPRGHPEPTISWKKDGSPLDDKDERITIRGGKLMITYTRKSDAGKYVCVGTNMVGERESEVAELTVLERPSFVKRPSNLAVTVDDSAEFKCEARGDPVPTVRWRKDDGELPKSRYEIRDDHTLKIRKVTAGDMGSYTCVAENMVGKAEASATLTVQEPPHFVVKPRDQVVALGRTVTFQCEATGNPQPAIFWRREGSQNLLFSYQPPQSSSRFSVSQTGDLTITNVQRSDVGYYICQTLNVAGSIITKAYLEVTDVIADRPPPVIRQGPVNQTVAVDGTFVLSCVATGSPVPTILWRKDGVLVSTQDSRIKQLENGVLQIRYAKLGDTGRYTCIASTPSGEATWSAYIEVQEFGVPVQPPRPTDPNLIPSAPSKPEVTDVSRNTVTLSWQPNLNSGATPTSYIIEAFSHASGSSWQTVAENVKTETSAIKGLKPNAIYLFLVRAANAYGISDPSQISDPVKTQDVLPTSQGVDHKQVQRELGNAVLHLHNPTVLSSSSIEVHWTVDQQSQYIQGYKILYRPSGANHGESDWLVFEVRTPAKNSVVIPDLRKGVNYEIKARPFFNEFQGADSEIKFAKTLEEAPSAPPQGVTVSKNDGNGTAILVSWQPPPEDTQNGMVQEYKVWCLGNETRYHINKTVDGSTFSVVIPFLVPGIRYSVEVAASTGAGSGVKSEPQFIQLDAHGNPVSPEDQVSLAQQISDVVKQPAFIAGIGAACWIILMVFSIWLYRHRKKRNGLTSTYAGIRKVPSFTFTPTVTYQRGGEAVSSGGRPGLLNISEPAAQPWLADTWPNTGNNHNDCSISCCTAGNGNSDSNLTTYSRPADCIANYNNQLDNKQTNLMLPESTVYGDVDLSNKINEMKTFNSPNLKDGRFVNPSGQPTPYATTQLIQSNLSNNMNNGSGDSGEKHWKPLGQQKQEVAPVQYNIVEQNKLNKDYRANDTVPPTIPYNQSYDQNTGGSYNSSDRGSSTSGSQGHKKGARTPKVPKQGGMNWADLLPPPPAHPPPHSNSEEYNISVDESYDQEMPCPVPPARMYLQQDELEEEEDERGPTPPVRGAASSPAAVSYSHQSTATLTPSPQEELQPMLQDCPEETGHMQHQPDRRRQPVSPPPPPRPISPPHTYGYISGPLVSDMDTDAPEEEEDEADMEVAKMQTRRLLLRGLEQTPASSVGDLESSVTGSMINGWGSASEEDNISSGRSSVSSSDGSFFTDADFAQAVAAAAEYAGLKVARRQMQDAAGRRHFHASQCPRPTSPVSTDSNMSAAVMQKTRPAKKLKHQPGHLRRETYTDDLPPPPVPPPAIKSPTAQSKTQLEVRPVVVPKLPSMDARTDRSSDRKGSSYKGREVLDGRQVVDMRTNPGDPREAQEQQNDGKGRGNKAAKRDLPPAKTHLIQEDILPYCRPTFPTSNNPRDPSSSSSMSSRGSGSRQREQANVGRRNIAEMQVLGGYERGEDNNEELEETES
Chain of 5HTT (P31645 whole entry): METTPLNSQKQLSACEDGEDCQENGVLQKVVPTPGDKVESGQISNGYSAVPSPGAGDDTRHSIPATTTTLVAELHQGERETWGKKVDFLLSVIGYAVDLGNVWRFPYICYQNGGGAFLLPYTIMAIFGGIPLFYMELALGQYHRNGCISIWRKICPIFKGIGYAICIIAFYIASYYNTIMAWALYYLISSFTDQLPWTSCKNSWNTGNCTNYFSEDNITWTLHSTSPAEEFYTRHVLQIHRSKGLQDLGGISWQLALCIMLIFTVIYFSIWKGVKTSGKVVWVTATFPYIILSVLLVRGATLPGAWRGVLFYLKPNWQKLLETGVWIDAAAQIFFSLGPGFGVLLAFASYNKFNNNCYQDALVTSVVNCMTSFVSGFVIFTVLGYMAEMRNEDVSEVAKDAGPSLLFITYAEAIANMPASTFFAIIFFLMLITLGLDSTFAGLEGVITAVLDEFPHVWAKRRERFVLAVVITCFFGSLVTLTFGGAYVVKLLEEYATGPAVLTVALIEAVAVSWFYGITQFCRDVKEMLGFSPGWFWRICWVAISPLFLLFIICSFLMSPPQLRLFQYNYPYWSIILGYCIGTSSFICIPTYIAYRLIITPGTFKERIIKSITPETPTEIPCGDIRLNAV
Chain of CCKa (P32238 whole entry): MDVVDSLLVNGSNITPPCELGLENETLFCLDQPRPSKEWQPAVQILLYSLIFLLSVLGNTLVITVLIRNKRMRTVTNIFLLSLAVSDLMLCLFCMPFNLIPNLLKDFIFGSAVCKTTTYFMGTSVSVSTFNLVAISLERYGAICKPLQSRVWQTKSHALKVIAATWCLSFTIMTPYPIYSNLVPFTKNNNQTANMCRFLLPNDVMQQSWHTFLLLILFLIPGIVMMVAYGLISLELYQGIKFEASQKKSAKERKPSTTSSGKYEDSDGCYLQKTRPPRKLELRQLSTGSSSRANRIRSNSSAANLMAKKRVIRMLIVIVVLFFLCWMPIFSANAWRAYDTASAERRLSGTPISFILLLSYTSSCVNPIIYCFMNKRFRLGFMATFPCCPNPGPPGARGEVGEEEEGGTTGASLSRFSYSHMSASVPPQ

Question: Which “reduction of atRA formation (in words)” value [1] does the source give for `CCc1cnccc1C(=O)Nc1cc2c(cc1F)NC(=O)CC2` [MBE1, 3-ethyl-N-(7-fluoro-2-oxo-3,4-dihydro-1H-quinolin-6-yl)pyridine-4-carboxamide] here?
Answer: Its value is “potently reduced atRA formation”.

Question: What about the “MDCK-MDR2 permeability A to B” value (MDCK-MDR2) of the same molecule?
Answer: The value was “high”.

Question: What about the efflux ratio (MDR2) of the same molecule?
Answer: The efflux ratio was 2.42.

Question: And the inhibition at 10 µM (CYP2C19)?
Answer: The inhibition at 10 µM was 15.8%.

Question: And the pIC50 (hERG [2])?
Answer: The pIC50 was 4.58.

Question: And the pIC50 (hERG [3])?
Answer: Its pIC50 is less than 4.52.

Question: And the “100nM MBE1 Tm” value (ROBO1)?
Answer: Its value is 63.1814.

Question: What about the “DMSO-100nM MBE1 TM” value (ROBO1) of the same molecule?
Answer: Its value is -8.49.

Question: What about the inhibition at 10 µM (CCKa) of the same molecule?
Answer: The inhibition at 10 µM was -1.45%.

Question: And the inhibition at 10 µM (5HTT)?
Answer: The inhibition at 10 µM was -24.2%.

Question: And the “Raw counts of 2-Hydroxybutyric acid” value (LN229 cells)?
Answer: Its value is 261573 and 302862 and 279756.

Question: And the “Raw counts of 3-Hydroxybutyric acid” value (LN229 cells)?
Answer: The value was 1309454 and 1164963 and 1206122.

Question: And the “Raw counts of 3-Phosphoglycerate” value (LN229 cells)?
Answer: Its value is 11596.7 and 6745.18 and 3724.31.

Question: And the “Raw counts of 3-Phosphoserine” value (LN229 cells)?
Answer: Its value is 6232.78 and 2797.63 and 5215.65.

Question: And the “Raw counts of 6-Phosphogluconate” value (LN229 cells)?
Answer: The value was 5157.27 and 5734.83 and 2668.31.

Question: And the “Raw counts of Carbamoyl phosphate” value (LN229 cells)?
Answer: The value was 45195.2 and 38665.3 and 41961.6.

Question: What about the “Raw counts of Citrulline” value (LN229 cells) of the same molecule?
Answer: Its value is 498544 and 479590 and 504161.

Question: What about the “Raw counts of Cytidine” value (LN229 cells) of the same molecule?
Answer: The value was 67589.2 and 84265.7 and 71881.1.

Question: And the “Raw counts of Hypoxanthine” value (LN229 cells)?
Answer: The value was 1333474 and 1740688 and 1516660.

Question: And the “Raw counts of Isoleucine” value (LN229 cells)?
Answer: Its value is 1.29E+08 and 1.33E+08 and 1.18E+08.

Question: And the “Raw counts of Lactate” value (LN229 cells)?
Answer: Its value is 3.62E+08 and 3.37E+08 and 3.31E+08.

Question: What about the “Raw counts of Leucine” value (LN229 cells) of the same molecule?
Answer: The value was 1.02E+08 and 1.11E+08 and 1.01E+08.

Question: And the “Raw counts of Methionine” value (LN229 cells)?
Answer: Its value is 1.89E+07 and 2.12E+07 and 1.99E+07.

Question: What about the “Raw counts of N-acetyl-glutamine” value (LN229 cells) of the same molecule?
Answer: The value was 31448.3 and 20555.9 and 36320.3.

Question: And the “Raw counts of Orotate” value (LN229 cells)?
Answer: Its value is 0.

Question: What about the “Raw counts of Phenylalanine” value (LN229 cells) of the same molecule?
Answer: The value was 7.59E+07 and 8.45E+07 and 7.68E+07.

Question: What about the “Raw counts of Phosphoenolpyruvate” value (LN229 cells) of the same molecule?
Answer: The value was 0 and 2071.2 and 2356.81.

Question: What about the “Raw counts of Pyridoxine” value (LN229 cells) of the same molecule?
Answer: Its value is 4.91E+07 and 5.30E+07 and 4.89E+07.

Question: What about the “Raw counts of Pyruvate” value (LN229 cells) of the same molecule?
Answer: Its value is 2231037 and 2192759 and 1890595.

Question: What about the “Raw counts of Ribitol” value (LN229 cells) of the same molecule?
Answer: Its value is 1641581 and 2032681 and 3007411.

Question: What about the “Raw counts of Sorbitol” value (LN229 cells) of the same molecule?
Answer: Its value is 2.02E+07 and 2.14E+07 and 2.12E+07.

Question: What about the “Raw counts of Taurine” value (LN229 cells) of the same molecule?
Answer: Its value is 1.22E+07 and 1.24E+07 and 1.15E+07.

Question: What about the “Raw counts of Tryptophan” value (LN229 cells) of the same molecule?
Answer: Its value is 1.21E+07 and 1.27E+07 and 1.15E+07.

Question: And the “Raw counts of Tyrosine” value (LN229 cells)?
Answer: Its value is 4.34E+07 and 4.46E+07 and 4.65E+07.

Question: And the “Raw counts of UDP” value (LN229 cells)?
Answer: The value was 108325 and 86766.9 and 84670.8.

Question: And the “Raw counts of Uracil” value (LN229 cells)?
Answer: Its value is 1116835 and 1114912 and 1017401.

Question: And the “Raw counts of Uridine” value (LN229 cells)?
Answer: The value was 932418 and 1052824 and 956012.

Question: And the “Raw counts of Valine” value (LN229 cells)?
Answer: The value was 6.74E+07 and 7.26E+07 and 6.71E+07.

Question: What about the “Raw counts of Xanthine” value (LN229 cells) of the same molecule?
Answer: The value was 9846835 and 1.10E+07 and 1.04E+07.

Question: What about the “nonspecific cytotoxicity (in words)” value (MDA-MB-468 cells) of the same molecule?
Answer: Its value is “nontoxic”.

Question: And the “stabilization of ALDH1A3 in CETSA (in words)” value (ALDH1A3)?
Answer: The value was “increased stability and solubility at high temperatures”.

Question: And the Cytotoxicity [4]?
Answer: Its Cytotoxicity is greater than 100 µM.

Question: And the pIC50 [5]?
Answer: The pIC50 was 8.44.

Question: What about the pEC50 [5] of the same molecule?
Answer: Its pEC50 is 8.44.

Question: Which “effect on growth or survival (in words)” value [6] does the source give for `CCc1ccccc1C(=O)Nc1cc2c(cc1F)NC(=O)CC2` [MBE1.5, 2-ethyl-N-(7-fluoro-2-oxo-3,4-dihydro-1H-quinolin-6-yl)benzamide] here?
Answer: The value was “no detectable effect”.

Question: What about the “reduction of atRA formation (in words)” value [1] of the same molecule?
Answer: The value was “potently reduced atRA formation”.

Question: What about the “MDCK-MDR2 permeability A to B” value (MDCK-MDR2) of the same molecule?
Answer: Its value is “high”.

Question: And the efflux ratio (MDR2)?
Answer: The efflux ratio was 0.6.

Question: And the inhibition at 10 µM (CYP2C19)?
Answer: Its inhibition at 10 µM is 0%.

Question: And the pIC50 (hERG [2])?
Answer: The pIC50 was less than 4.52.

Question: What about the pIC50 (hERG [3]) of the same molecule?
Answer: Its pIC50 is less than 4.52.

Question: What about the Cytotoxicity [4] of the same molecule?
Answer: The Cytotoxicity was greater than 100 µM.

Question: And the pIC50 [5]?
Answer: The pIC50 was greater than 9.00.

Question: What about the pEC50 [5] of the same molecule?
Answer: The pEC50 was 9.28.
